For data set [1], the target named is T1, HRV-14 3CP (Human rhinovirus 14, UniProt P03303).
T1 construct: The 2A and 3C protease (3CP) process this polyprotein into its functional viral proteins in HRV
The experiment in a line: 3CP enzyme inhibition assay. It counts as biochemical. The settings on record: for kinact/KI: read-out: Kobs/[I]. An excerpt: 3CP Inhibition Assays and Antiviral Assays The details of the 3CP enzyme assays used and the antiviral assays used are outlined in Dragovich, P. S., Webber, S. E, Babine, R. E., Fuhrman, S. A., Patick, A. K., Matthews, D. A., Lee, C. A., Reich, S. H., Prins, T. J., Marakovits, J. T., Littlefield, E. S., Zhou, R., Tikhe, J., Ford, C. E., Wallace, M. B., Meador, III, J. W., Ferre, R., Brown, E. L., Binford, S. L, Harr, , J. E. V., DeLisle, D. M. and Worland, S. T. Structure-Based Design, Synthesis, and Biological Evaluation of Irreversible Human Rhinovirus 3C Protease Inhibitors. 1. Michael Acceptor Structure-Activity Studies J. Med. Chem. 1998,41, 2806, the disclosure of which is incorporated by reference herein.

For data set [2], the system named is HRV-14. In words: antiviral cytopathic effect assay employing H1-HeLa cells infected with HRV-14. It counts as cell-based, human rhinovirus serotype 14. The settings on record: for EC50: Rhinovirus B, HRV14, H1-HeLa. In general terms: Damage to the host cells serves as the signal in cytopathic effect assays.
Data set [3] in a line: cytotoxicity (CC50) in the antiviral cell culture assay. To be noted: human.
Data set [4] has as its target T2, 3CP (Human rhinovirus 14, UniProt P03303).
T2 construct: The 2A and 3C protease (3CP) process this polyprotein into its functional viral proteins in HRV
In words: loss of 3CP inhibitory activity after exposure of compound to DTT. It counts as biochemical. To be noted: for DTT inhib.: loss of 3CP inhibitory activity after exposure to 5 mM DTT for 2-3 min at 23° C. As for the experimental part:
With this information in hand, additional esters were prepared and tested. It was anticipated that by filling the active site in the prime direction (S1′-S2′), additional affinity might be obtained. […] To determine whether the activity of the parent compound 1 was due to the inherent reactivity of the unsaturated ester, alternative substitutions were examined in the 1-position corresponding to the S1 recognition pocket. […] (Webber, S. E., Tikhe, J., Worland, S. T., Fuhrman, S. A., Hendrickson, T. F., Matthews, D. A., Love, R. A., Patick, A. K., Meador, J. W., Ferre, R. A., Brown, E. L., DeLisle, D. M., Ford, C. E., Binford, S. L. Design, Synthesis, and Evaluation of Nonpeptidic Inhibitors of Human Rhinovirus 3C Protease. J. Med. Chem. 1996, 39, 5072-5082.) Increased activation of the Michael acceptor toward nucleophilic addition, by alpha cyano substitution, led to a modest but reversible inhibitor, compound 9. Various unsaturated imides, also expected to be more reactive than an unsaturated ester, were poor inhibitors. Exploration of α,β-unsaturated ketones led to some interesting findings. […] When tested in the antiviral assay, ketones in general had greater toxicity (lower CC50) and no measurable antiviral effect. […] (Dragovich, P. S., Webber, S. E, Babine, R. E., Fuhrman, S. A., Patick, A. K., Matthews, D. A., Lee, C. A., Reich, S. H., Prins, T. J., Marakovits, J. T., Littlefield, E. S., Zhou, R., Tikhe, J., Ford, C. E., Wallace, M. B., Meador, III, J. W., Ferre, R., Brown, E. L., Binford, S. L, Harr, J.E. V., DeLisle, D. M. and Worland, S. T. Structure-Based Design, Synthesis, and Biological Evaluation of Irreversible Human Rhinovirus 3C Protease Inhibitors. 1. Michael Acceptor Structure-Activity Studies J. Med. Chem. 1998,41, 2806.) Electron-donating substituents at the 4-position of the phenyl ketone (4-Me2N—, 4-MeO—), were expected to make the ketones less reactive, however, no effect on their inactivation with DTT was observed. Similarly, heterocyclic ketones (2-pyridyl, 2-furyl) maintained their reactivity with DTT. In an attempt to make the inhibitors more compact, an indenone scaffold was designed. […] It became clear that while small, nonpeptidic α,β-unsaturated ketones such as compound 22 afforded potent […] inhibition of 3CP, this increased reactivity was incompatible with the more complex cellular milieu present in the cytopathic effect assay.

The subject of data set [5] is H1-HeLa cells.
[6] abbreviates: Table 1, Serotype 14, NI = no inhibition.

Molecules are shown by their SMILES. Read-outs that look alike come from different tables or passages of the source.

T2 sequence (P03303 1538-1719): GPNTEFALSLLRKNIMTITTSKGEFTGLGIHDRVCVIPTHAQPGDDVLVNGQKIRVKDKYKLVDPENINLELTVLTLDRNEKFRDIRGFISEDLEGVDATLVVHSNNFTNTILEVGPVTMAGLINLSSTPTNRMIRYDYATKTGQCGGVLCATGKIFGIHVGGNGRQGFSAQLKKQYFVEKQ
T1 sequence (P03303 1538-1719): as above

In general, EC50 refers to the concentration at which the effect is half-maximal. For orientation: melting point means the temperature, or range, at which the solid turns liquid. In general, CC50 refers to the concentration that lowers cell viability or growth by half. High values mean lower toxicity to the cells, low ones greater toxicity to the cells. For `CCOC(=O)/C=C/c1cccc(C(N)=O)c1` [Compound 1, 3-(3-Carbamoylphenyl)-acrylic acid ethyl ester], the melting point is 168 to 170 °C. Also, the kinact/KI in data set [1] worked out at 52 M⁻¹ s⁻¹. For the same molecule, the midpoint of the response in data set [2], the EC50, lay at 15.9 µM. The CC50 in data set [3] is over 320 µM.
The molecule `NC(=O)c1cccc(C=CC(=O)c2ccco2)c1` [Compound 21, 3-(3-Furan-2-yl-3-oxo-propenyl)-benzamide] gave an EC50 in data set [2] of over 71 µM. Also, the DTT inhib. entry in data set [4] is “yes”. In data set [3], this molecule gave a CC50 of over 71 µM.
As for `NC(=O)c1ccc2c(c1)C=CC2=O` [Compound 22, 1-Oxo-1H-indene-5-carboxylic acid amide], the melting point was 275 °C (dec.). In data set [2], the “antiviral activity (in words)” value is “no antiviral activity” and the EC50 was over 20 µM. For the same molecule, the DTT inhib. entry in data set [4] is “yes”. For the same molecule, the “inactivation by DTT (in words)” value in data set [4] (upon incubation with DTT) is “inactivated by DTT”. Besides, in data set [3], the CC50 is over 20 µM.
Take `NC(=O)c1cccc(C=CC(=O)OCc2ccccc2)c1` [Compound 3, 3-(3-Carbamoyl-phenyl)-adrylic acid benzyl ester]: the “Kobs/[I]” value in data set [1] (setting [6]) stood at 25 M⁻¹ s⁻¹. This molecule also registered a CC50 in data set [5] of over 100 µM.
Regarding `CCOC(=O)/C=C/c1cc(O)cc(C(N)=O)c1` [Compound 11, 3-(3-Carbamoyl-5-hydroxy-phenyl)-acrylic acid ethyl ester], the melting point lay in the range of 200 to 202 °C. Moreover, the kinact/KI in data set [1] (setting [6]) came out at 47 M⁻¹ s⁻¹. Also, in data set [2], the EC50 is over 100 µM. In addition, in data set [3], the CC50 is over 100 µM.
`NC(=O)c1cccc(C=CC(=O)c2ccccn2)c1` [Compound 20, 3-(3-Oxo-3-pyridin-2-yl-propenyl)-benzamide] came in with an EC50 in data set [2] of over 50 µM. Besides, the DTT inhib. result in data set [4] is “yes”. This molecule registered a CC50 in data set [3] of over 50 µM.
`NC(=O)c1cccc(C=CC(=O)c2ccccc2)c1` [Compound 17, 3-(3-Oxo-3-phenyl-prop-1-enyl)-benzamide]: in data set [2], the EC50 turned out to be 28 µM. Besides, in data set [4], the DTT inhib. entry was “yes”. The CC50 in data set [3] is over 28 µM.
Taken in the same sequence, the figures for `CN(C)c1ccc(C(=O)/C=C/c2cccc(C(N)=O)c2)cc1` [Compound 18, 3-[3-(4-Dimethylamino-phenyl)-oxo-propenyl] benzamide] were over 15 µM, “yes” and over 15 µM.
Taken in the same sequence, the figures for `CC(=O)C=Cc1cccc(C(N)=O)c1` [Compound 16, 3-(3-Oxo-but-1-enyl)-benzamide] were 32 µM, “yes” and 40 µM.
In turn, `CCOC(=O)C=Cc1cc(OCc2ccccc2)cc(C(N)=O)c1` [Compound 12, 3-(3-Benzyloxy-5-carbamoyl-phenyl)-acrylic acid ethyl ester] gave a melting point of 193 to 194 °C.
In the case of `COc1ccc(C(=O)/C=C/c2cccc(C(N)=O)c2)cc1` [Compound 19, 3-[3-(4-Methoxy-phenyl)-oxo-propenyl] benzamide], in data set [2], the EC50 is over 22 µM. Besides, the DTT inhib. entry in data set [4] is “yes”. In addition, the CC50 in data set [3] was over 22 µM.
In the case of `CCOC(=O)C=Cc1ccc(OCc2ccccc2)c(C(N)=O)c1` [Compound 15, 3-(4-Benzyloxy-3-carbamoyl-phenyl)-acrylic acid ethyl ester], the kinact/KI in data set [1] (setting [6]) amounted to 30 M⁻¹ s⁻¹. Also, the EC50 in data set [2] is over 320 µM. Moreover, in data set [3], the half-maximal cytotoxic concentration (CC50) was over 320 µM.

The values are drawn from US6369226B1, “Substituted benzamide inhibitors of rhinovirus 3C protease” (Agouron Pharmaceuticals, Inc., priority 1999, dated 2002).
